According to patent publication US20220202906A1, “VASOACTIVE INTESTINAL PEPTIDE (VIP) FOR USE IN THE TREATMENT OF DRUG-INDUCED PNEUMONITIS” (ADVITA L[…], priority 2019, published 2022):

Experiments:
[1] = human, in vivo
[2] = sarcoidosis, inhaled aerosolized VIP; cited from earlier work
[3] = Blood level of VIP after aerosol administration; assay type: in vivo
Source text: This is especially unexpected as the treatment with aerosols is normally regarded to be only efficient if inhaled noxes are the cause of the pulmonary defects. In the context of the present invention, a systemic substance is, however, the cause of drug-induced pneumonitis (such as CIP) and therefore topic administration is not expected to have any great effect.

[4] = 50 μg four times daily by inhalation, 28 days; cited from earlier work
[5] = Aerosol characterisation with M-Neb dose+ mesh nebulizer MN-300/8 and COPLEY next generation impactor (NGI); assay type: physicochemical; details: VIP dissolved in 0.9% NaCl
Source text: Using the M-Neb® dose+ mesh nebulizer MN-300/8 and the respective mouthpiece, VIP has been tested with the COPLEY next generation impactor (NGI). The mass median aerodynamic diameter (MMD) of VIP dissolved in 0.9% NaCl was 3.3-3.5 μm per emitted particle.

[6] = Off-label inhaled VIP therapy in a patient with checkpoint inhibitor-induced pneumonitis; assay type: in vivo, human
Protocol: A patient, who was treated with checkpoint inhibitors, developed CIP and steroid treatment led to insufficient control. Because of missing other approved therapeutic options the patient was treated off-label with inhaled VIP therapy initiated at a dose of 4×70 μg/ml per day dosage (280 μg per day with overnight break).

[7] = CIP patient, inhaled VIP 280 μg per day

## CC[C@H](C)[C@H](NC(=O)[C@H](CO)NC(=O)[C@H](CC(N)=O)NC(=O)[C@H](CC(C)C)NC(=O)[C@H](Cc1ccc(O)cc1)NC(=O)[C@H](CCCCN)NC(=O)[C@H](CCCCN)NC(=O)[C@@H](NC(=O)[C@H](C)NC(=O)[C@H](CCSC)NC(=O)[C@H](CCC(N)=O)NC(=O)[C@H](CCCCN)NC(=O)[C@H](CCCNC(=N)N)NC(=O)[C@H](CC(C)C)NC(=O)[C@H](CCCNC(=N)N)NC(=O)[C@@H](NC(=O)[C@H](Cc1ccc(O)cc1)NC(=O)[C@H](CC(N)=O)NC(=O)[C@H](CC(=O)O)NC(=O)[C@@H](NC(=O)[C@H](Cc1ccccc1)NC(=O)[C@@H](NC(=O)[C@H](C)NC(=O)[C@H](CC(=O)O)NC(=O)[C@H](CO)NC(=O)[C@@H](N)Cc1c[nH]cn1)C(C)C)[C@@H](C)O)[C@@H](C)O)C(C)C)C(=O)N[C@@H](CC(C)C)C(=O)N[C@@H](CC(N)=O)C(N)=O [VIP, Vasoactive intestinal peptide]
[1]
  clinical outcome: clinical amelioration
[2]
  TNF-release: decrease of TNF-release
  regulatory T-cells: increase of regulatory T-cells
  symptoms: symptomatic relief
[3]
  blood level of VIP: does not lead to an elevated blood level of VIP
[4]
  tolerability / adverse events: well tolerated without serious adverse events
[5]; M-Neb dose+ MN-300/8
  dose delivered at the mouthpiece: 90.2 % of the tested dosages
  particles with a diameter: 85.7%
[5]; M-Neb dose+ MN-300/8 with mouthpiece
  mass median aerodynamic diameter (MMD) per emitted particle: 3.3-3.5 μm
[6]; [7]
  alveolar inflammation as measured by bronchoalveolar lavage: dampened by an increase of regulatory T-cell
  patient's general health: ameliorated
  radiological alterations (e.g. consolidations): diminished
[6]; CIP patient, inhaled VIP 4×70 μg per day (280 μg per day)
  lung function: normalized within six months of treatment
[6]; VIP inhalation in CIP
  side effects on the patient's immune system: does not suffer from severe side effects on the patient's immune system
